{
  "source": "patent US5441941A",
  "about": "“1,2-dihydroellipticines with activity against CNS specific cancer” (The United States of America as represented by the …, priority 1993, dated 1995)",
  "origin": "cited, not measured here",
  "key": {"[1]": {"system": "mouse lymphoid leukemia L-1210", "settings": "cited from earlier work"}, "mammary cancer": {"system": "mammary cancer", "settings": "in vivo; cited from earlier work"}, "B16 melanoma": {"system": "B16 melanoma", "settings": "cited from earlier work"}, "P388": {"system": "P388", "settings": "cited from earlier work"}, "colon carcinoma": {"system": "colon carcinoma", "settings": "cited from earlier work"}, "M5076 reticulosarcoma": {"system": "M5076 reticulosarcoma", "settings": "cited from earlier work"}, "Sarcoma 180 (solid)": {"system": "Sarcoma 180 (solid)", "settings": "in vivo; cited from earlier work"}, "SF407": {"system": "SF407", "settings": "human glioma line; cited from earlier work"}, "SF375": {"system": "SF375", "settings": "human glioma line; cited from earlier work"}, "SF126": {"system": "SF126", "settings": "human glioma line; cited from earlier work"}},
  "note": "Like-named read-outs stand apart in the source and are kept apart here.",
  "data": [
    {"smiles": "Cc1c2ccncc2c(C)c2c1[nH]c1ccc(O)cc12", "note": "[9-hydroxyellipticine, 9-hydroxy-5,11-dimethyl-(6H) -pyrido [4,3-b] carbazole]", "values": [
      {"measurement": "antitumor activity", "setting": "[1]; mouse L-1210 leukemia", "value": "considerably high antitumor properties"}
    ]},
    {"smiles": "Cc1c2cc[n+](C)cc2c(C)c2c1[nH]c1ccc(O)cc12", "note": "[Celiptium, 2-methyl-9-hydroxyellipticinium acetate]", "values": [
      {"measurement": "effect against mammary cancer", "setting": "mammary cancer", "value": "effective against mammary cancer"}
    ]},
    {"smiles": "CCN(CC)CC[n+]1ccc2c(C)c3[nH]c4ccc(O)cc4c3c(C)c2c1", "note": "[datelliptium, 2-[(2-diethylamino)ethyl]-9-hydroxyellipticinium]", "values": [
      {"measurement": "in vivo activity", "setting": "B16 melanoma", "value": "in vivo activity"},
      {"measurement": "in vivo activity", "setting": "P388", "value": "in vivo activity"},
      {"measurement": "antitumor activity", "setting": "[1]; mouse, in vivo", "value": "in vivo activity"},
      {"measurement": "in vivo activity", "setting": "colon carcinoma", "value": "in vivo activity"},
      {"measurement": "in vivo activity", "setting": "M5076 reticulosarcoma", "value": "in vivo activity"}
    ]},
    {"smiles": "Cc1c2ccncc2c(C)c2c1[nH]c1ccccc12", "note": "[ellipticine, 5, 11-dimethyl-6H-pyrido [4,3-b] carbazole]", "values": [
      {"measurement": "antitumor activity", "setting": "[1]; mouse L-1210 leukemia", "value": "effective against the tumor of animals"},
      {"measurement": "effect against tumor of animals", "setting": "Sarcoma 180 (solid)", "value": "effective against the tumor of animals"}
    ]},
    {"smiles": "Cc1c2cc[n+](C)cc2c(C)c2c1[nH]c1ccc(O)cc12", "note": "[elliptinium]", "values": [
      {"measurement": "in vitro activity", "setting": "SF407", "value": "in vitro activity"},
      {"measurement": "in vitro activity", "setting": "SF375", "value": "in vitro activity"},
      {"measurement": "in vitro activity", "setting": "SF126", "value": "in vitro activity"}
    ]}
  ]
}
